ChEMBL document CHEMBL5096160, “Targeting SHP2 as a therapeutic strategy for inflammatory diseases” (Eur J Med Chem, 2021)
In brackets after ≈: the same amount, converted by molar mass. Values belong to the compound of their own block, whether it stands above or below them.

What was measured:
[1] = molecular target: T1, Tyrosine-protein phosphatase non-receptor type 11 (Homo sapiens, UniProt Q06124); assay: Inhibition of human SHP2 catalytic domain expressed in Escherichia coli using p-nitrophenyl phosphate as substrate by spectrophotometric method
T1 sequence (Q06124 whole entry): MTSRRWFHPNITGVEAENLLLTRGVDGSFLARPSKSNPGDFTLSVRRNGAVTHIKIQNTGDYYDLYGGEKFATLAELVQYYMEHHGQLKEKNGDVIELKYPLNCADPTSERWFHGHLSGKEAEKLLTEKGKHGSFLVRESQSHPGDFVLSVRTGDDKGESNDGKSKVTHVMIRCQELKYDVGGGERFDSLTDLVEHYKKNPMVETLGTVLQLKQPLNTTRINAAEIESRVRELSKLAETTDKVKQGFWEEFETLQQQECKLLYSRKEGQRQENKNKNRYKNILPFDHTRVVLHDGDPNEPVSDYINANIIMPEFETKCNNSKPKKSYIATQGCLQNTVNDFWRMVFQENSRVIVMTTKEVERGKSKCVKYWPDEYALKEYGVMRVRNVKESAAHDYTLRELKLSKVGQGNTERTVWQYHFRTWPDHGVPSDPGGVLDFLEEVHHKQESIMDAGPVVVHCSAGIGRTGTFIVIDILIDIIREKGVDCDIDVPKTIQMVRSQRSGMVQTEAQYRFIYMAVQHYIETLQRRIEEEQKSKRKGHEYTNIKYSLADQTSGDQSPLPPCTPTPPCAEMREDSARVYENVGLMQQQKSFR

BaF3 = assay: Cytotoxicity against mouse BaF3 cells assessed as inhibition of cell proliferation incubated for 48 hrs by MTT assay; type: functional, cell-based; details: BaF3, 48 h
[2] = Cytotoxicity against human LN-444 cells assessed as reduction in cell viability incubated for 72 hrs by WST-1 assay; type: functional, cell-based; details: LN-444, 72 h
Capan-2 = assay: Cytotoxicity against human Capan-2 cells harbouring K-ras mutant assessed as reduction in cell viability incubated for 144 hrs; type: functional, cell-based; details: Capan-2, 144 h
[3] = molecular target: T1, Tyrosine-protein phosphatase non-receptor type 11; assay: Inhibition of recombinant human GST-tagged SHP2 expressed in Escherichia coli BL21 incubated for 30 mins by DiFMUP fluorescence assay
A549 = assay: Antiproliferative activity against human A549 cells assessed as inhibition of cell growth measured after 72 hrs by CCK-8 assay; type: functional, cell-based; details: A549, 72 h
[4] = molecular target: T1, Tyrosine-protein phosphatase non-receptor type 11; assay: Inhibition of N-terminal hexaHis-tagged catalytic domain of human SHP2 (248 to 527 residues) expressed as Escherichia coli Rosetta (DE3) using DiFMUP as substrate preincubated for 1 hr followed by substrate addition by fluorescence based analysis
[5] = molecular target: T1, Tyrosine-protein phosphatase non-receptor type 11; assay: Inhibition of human recombinant SHP2 expressed in Escherichia coli using p-nitrophenyl phosphate as substrate preincubated for 2 mins followed by substrate addition by microplate spectrophotometer analysis
[6] = molecular target: T1, Tyrosine-protein phosphatase non-receptor type 11; assay: Inhibition of SHP2 (unknown origin) using EFpYAEVGRSPPDPAK incubated for 0.5 hrs by malachite green reagent based assay
[7] = molecular target: Tyrosine-protein phosphatase non-receptor type 6 (Homo sapiens) (UniProt P29350); assay: Inhibition of SHP1 (unknown origin) using EFpYAEVGRSPPDPAK incubated for 0.5 hrs by malachite green reagent assay
[8] = molecular target: T1, Tyrosine-protein phosphatase non-receptor type 11; assay: Inhibition of N-terminal 6His-tagged full-length H2N-VE(pY)LDLDLD(PEG8)RVD(pY)VVVDQQ-amide-activated SHP2 (247 to 529 residues) (unknown origin) expressed in Escherichia coli BL21 (DE3) using DiFMUP as substrate preincubated for 10 to 30 mins with activating peptide prior to compound addition for 30 mins followed by substrate addition and measured for 6 mins by fluorescence based assay
SW1463 = assay: Cytotoxicity against human SW1463 cells assessed as inhibition of cell growth incubated for 120 hrs by MTT assay; type: functional, cell-based; details: SW1463, 120 h
[9] = molecular target: T2, Tyrosine-protein phosphatase non-receptor type 11 (Homo sapiens) (UniProt Q06124); assay: Inhibition of SHP2 in human LS180 cells; type: cell-based
T2 sequence (whole entry): T1 sequence (Q06124 whole entry)

[10] = molecular target: T2, Tyrosine-protein phosphatase non-receptor type 11 (Homo sapiens); assay: Inhibition of recombinant SHP2 (unknown origin)
[11] = molecular target: T1, Tyrosine-protein phosphatase non-receptor type 11; assay: Inhibition of GST-tagged SHP2 (unknown origin) using 8-difluoro-4-methylumbelliferyl phosphate as a substrate measured after 30 mins by fluorescence based analysis
[12] = molecular target: Tyrosine-protein phosphatase non-receptor type 11 (Mus musculus, UniProt P35235); assay: Inhibition of SHP2 in mouse EMT6 cells harboring SOS1 mutation; type: cell-based
Sequence of Tyrosine-protein phosphatase non-receptor type 11 (Mus musculus, UniProt P35235) (P35235 2-593 limits assumed, change not shown): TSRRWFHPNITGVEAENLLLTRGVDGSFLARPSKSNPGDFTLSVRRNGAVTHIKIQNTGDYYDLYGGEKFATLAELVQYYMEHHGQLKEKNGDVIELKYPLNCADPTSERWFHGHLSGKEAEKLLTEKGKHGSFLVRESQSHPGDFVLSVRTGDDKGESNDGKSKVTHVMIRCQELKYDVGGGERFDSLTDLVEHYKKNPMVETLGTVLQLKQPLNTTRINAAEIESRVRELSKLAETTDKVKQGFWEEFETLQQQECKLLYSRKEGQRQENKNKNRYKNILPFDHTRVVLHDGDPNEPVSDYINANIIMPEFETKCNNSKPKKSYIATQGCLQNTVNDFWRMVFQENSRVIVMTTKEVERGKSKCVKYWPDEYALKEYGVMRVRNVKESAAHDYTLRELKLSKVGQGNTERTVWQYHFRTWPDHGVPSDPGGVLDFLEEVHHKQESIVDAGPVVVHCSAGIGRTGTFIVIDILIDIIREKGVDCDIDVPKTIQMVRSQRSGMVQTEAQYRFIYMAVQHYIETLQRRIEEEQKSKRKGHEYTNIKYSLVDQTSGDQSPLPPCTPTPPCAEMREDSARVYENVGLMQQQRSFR

Sequence of Tyrosine-protein phosphatase non-receptor type 6 (Homo sapiens) (P29350 whole entry, the tested form may be a part): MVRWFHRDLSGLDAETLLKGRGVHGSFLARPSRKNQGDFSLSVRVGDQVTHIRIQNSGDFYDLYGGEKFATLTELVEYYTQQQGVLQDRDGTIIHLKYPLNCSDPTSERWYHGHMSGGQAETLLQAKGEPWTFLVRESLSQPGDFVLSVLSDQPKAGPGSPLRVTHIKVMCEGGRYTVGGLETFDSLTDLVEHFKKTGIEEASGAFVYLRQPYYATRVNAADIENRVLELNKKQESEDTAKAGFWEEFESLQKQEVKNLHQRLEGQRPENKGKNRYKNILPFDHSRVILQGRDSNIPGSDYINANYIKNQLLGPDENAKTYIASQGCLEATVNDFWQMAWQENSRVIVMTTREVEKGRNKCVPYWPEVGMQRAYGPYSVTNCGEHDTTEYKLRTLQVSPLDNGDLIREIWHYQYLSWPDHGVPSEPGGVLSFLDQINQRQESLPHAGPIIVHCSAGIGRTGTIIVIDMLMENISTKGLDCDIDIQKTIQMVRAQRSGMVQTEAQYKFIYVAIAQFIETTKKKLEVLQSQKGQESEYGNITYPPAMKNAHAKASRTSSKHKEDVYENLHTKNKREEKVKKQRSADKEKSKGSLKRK

Compound: CC1(N)CCN(c2cnc(-c3cccc(Cl)c3Cl)c(N)n2)CC1
IC50 (BaF3): 19.9 µM
IC50 [2]: 38 µM
IC50 (Capan-2): 15.7 µM

Compound: CC(=O)O[C@H]1CC[C@]2(C)c3c(O)c4c(c(O)c3C(=O)CC2C1(C)C)C[C@H](C)O4 (some centres undefined)
IC50 [3]: 8.79 µM
IC50 (A549): 10.8 µM

Compound: O=C1/C(=N/Nc2ccc(S(=O)(=O)O)cc2)C(c2ccc([N+](=O)[O-])cc2)=NN1c1ccc([N+](=O)[O-])cc1
IC50 [4]: 0.071 µM

Compound: NCC1CCN(c2ncc(-c3cccc(Cl)c3Cl)cc2CO)CC1
IC50 [6]: 1.36 µM
IC5 [7]: 100 µM
IC50 (BaF3): 2.35 µM

Compound: N[C@@H]1COCC12CCN(c1cnc3c(Sc4cccc(Cl)c4Cl)n[nH]c3n1)CC2
IC50 [8]: 0.0021 µM
IC50 (SW1463): 0.59 µM
MIC [9]: 10 µM (≈ 4.51 µg/mL)

Compound: C/C(=C\[C@H](O)C[C@@H](C)[C@H]1CC[C@@]2(C)[C@@H]3CC[C@H]4C(C)(C)[C@@H](O)CC[C@@]45C[C@@]35CC[C@]12C)C(=O)O
IC50 [11]: 19 µM

More lines, now with the values ahead:

IC50 [1]: 0.7 µM
Compound: CCCCCCCCCC[C@@H](C)C(=O)C1=C2C3=COC(C)=CC3=CC(=O)[C@]2(C)OC1=O

IC50 [5]: 4.3 µM
Compound: CCOC(=O)c1sc(-c2ccc([N+](=O)[O-])cc2)nc1COc1ccc(Cl)cc1

IC5 [10]: 1.1 µM
Compound: O=C(O)c1ccccc1-c1ccc(/C=c2/sc3nc4cc(Br)cnc4n3c2=O)o1

IC50 [1]: 0.8 µM
Compound: CCCCCCCCCCCC(=O)C1=C2C3=COC(C)=CC3=CC(=O)[C@]2(C)OC1=O

IC50 [5]: 0.99 µM
Compound: CCOC(=O)c1sc(-c2ccc(OC)cc2)nc1COc1ccc(Cl)cc1

IC50 [12]: 0.007 µM
Compound: Cc1nc(N2CCC3(CC2)CO[C@@H](C)[C@H]3N)c(CO)nc1-c1cccc(Cl)c1Cl
